Results reported in article PMC9950073, “Alleviation of arthritis through prevention of neutrophil extracellular traps by an orally available inhibitor of protein arginine deiminase 4” (Scientific Reports, 2023).
“And” between values parts separate entries of the source, which are not always exact repeats. Identical values can stand only once.

Experiments:
[1] = biological target: T1, recombinant human PAD4 enzyme (Homo sapiens, UniProt Q9UM07); experiment: PAD4 biochemical assay measuring ammonia release; settings: 10 semi-log concentrations, figure box prints no unit, x axis μM, read-out: IC50, inhibition of PAD4 enzymatic activity
T1 construct: Full-length recombinant human PAD4 used in the assay was produced at Jubilant Biosys Ltd, Bangalore; made in house
Protocol: This assay relies on the ammonia produced when peptidylarginine deiminase 4 (PAD4) deiminates Nα-Benzoyl-L-arginine ethyl ester (BAEE) (Sigma, Catalog No: B4500), a non-natural substrate. The ammonia reacts with a detector i.e., ortho-phthaladehyde (OPA) (Sigma, Catalog No: P0657) resulting in a fluorescent product that is then analyzed at an excitation wavelength of 410 nm and an emission wavelength of 470 nm[33]. Full-length recombinant human PAD4 used in the assay was produced at Jubilant Biosys Ltd, Bangalore. PAD4 enzyme (125 nM) was diluted in Assay Buffer (100 mM HEPES, 50 mM NaCl, 2 mM DTT, 0.6 mg/ml BSA, pH7) and incubated with different concentrations of JBI-589 for 60 min at room temperature and then the reaction was initiated by the addition of substrate (1.5 mM BAEE (sigma) in 100 mM HEPES, 50 mM NaCl, 500 μM CaCl2, 2 mM DTT, pH7) then incubated with 1.5 mM BAEE substrate (Sigma) for another 60 min. The reaction was then stopped by the addition of detection buffer containing 50 mM EDTA, 2.6 mM ortho-phthalaldehyde and 2 mM DTT and fluorescence was measured. IC50 values were determined by sigmoidal dose–response curve (variable slope) using GraphPad Prism 5 software. […]

[2] = biological target: T2, CYP1A2 (Homo sapiens, UniProt P05177); experiment: CYP inhibition in human liver microsome, CYP1A2; format: in vitro ADME
T2 construct: from tissue; host or cells: human liver microsomes
T2 sequence (P05177 1-516): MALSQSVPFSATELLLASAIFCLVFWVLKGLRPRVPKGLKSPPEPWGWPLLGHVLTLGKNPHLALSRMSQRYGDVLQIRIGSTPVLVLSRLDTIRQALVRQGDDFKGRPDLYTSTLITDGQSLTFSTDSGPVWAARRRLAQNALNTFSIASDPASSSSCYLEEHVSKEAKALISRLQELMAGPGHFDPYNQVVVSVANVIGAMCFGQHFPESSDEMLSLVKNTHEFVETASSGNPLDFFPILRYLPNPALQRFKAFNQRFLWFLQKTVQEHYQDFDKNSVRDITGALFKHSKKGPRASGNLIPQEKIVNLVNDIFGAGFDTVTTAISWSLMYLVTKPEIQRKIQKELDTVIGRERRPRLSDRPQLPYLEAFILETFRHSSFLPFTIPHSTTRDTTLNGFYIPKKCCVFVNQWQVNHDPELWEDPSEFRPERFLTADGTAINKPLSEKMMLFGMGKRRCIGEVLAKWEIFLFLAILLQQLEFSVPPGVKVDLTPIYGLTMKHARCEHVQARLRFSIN
Protocol: CYP inhibition: Human liver microsome (0.1–0.5 mg/mL for various CYPs) and appropriate probe substrates (2.5–20 µM) were incubated in potassium phosphate buffer with or without JBI-589 for 5 min at 37 °C. The reaction was initiated by addition of NADPH (1 mM), incubated at 37 °C for 10 min and quenched (0.5% Formic acid in internal standard (IS) containing ACN). Samples were then centrifuged and taken for LC–MS/MS analysis. Percent change in metabolite formation for each substrate under above conditions using formula: Percent inhibition = [1 − (test area ratio/control area ratio)] *100.

[3] = test system: human neutrophils; experiment: In vitro NET assay, human neutrophils; format: cell-based; settings: 10 μM, ionomycin 4 µM 4 h
Text: All blood samples from healthy donors who participated in this study were obtained after informed consent in accordance with relevant guidelines and regulations given by the ACE Independent ethics committee for Jubilant Biosys Ltd and Office of Clinical Investigations at Boston Children’s Hospital. The ACE Independent ethics committee, Bangalore, approved the use of human whole blood/PBMC/Enriched Subset in Jubilant Biosys Ltd investigations, Drug Controller General of India (DCGI) Reg No. ECR/141/Indt/KA/2013. Briefly, 10 mL K2EDTA vacutainers were used to collect fresh blood from healthy donors (BD vacutainer, Catalog No: BD 367525). A total of 50 ml of blood was taken from a single, healthy human donor. Neutrophils were isolated from human blood using the EasySep Direct Human Neutrophil Isolation Kit, according to the manufacturer's instructions (Stem Cell Technology, Catalog No: 19666). […]
Mouse or human neutrophils were resuspended in HEPES-supplemented phenol red-free RPMI1640 medium and 1.5 × 10^4 cells were seeded per well in a 96-well plate. […] Images were obtained with a Zeiss Axiovert 200 M wide-field fluorescence microscope (Zeiss, Oberkochen, Germany) with the Zeiss AxioVision software. The percentages of H4Cit positive neutrophils and neutrophil extracellular traps (NETs) were calculated by quantifying more than 200 randomly selected cells. […]

T1 sequence (Q9UM07 whole entry): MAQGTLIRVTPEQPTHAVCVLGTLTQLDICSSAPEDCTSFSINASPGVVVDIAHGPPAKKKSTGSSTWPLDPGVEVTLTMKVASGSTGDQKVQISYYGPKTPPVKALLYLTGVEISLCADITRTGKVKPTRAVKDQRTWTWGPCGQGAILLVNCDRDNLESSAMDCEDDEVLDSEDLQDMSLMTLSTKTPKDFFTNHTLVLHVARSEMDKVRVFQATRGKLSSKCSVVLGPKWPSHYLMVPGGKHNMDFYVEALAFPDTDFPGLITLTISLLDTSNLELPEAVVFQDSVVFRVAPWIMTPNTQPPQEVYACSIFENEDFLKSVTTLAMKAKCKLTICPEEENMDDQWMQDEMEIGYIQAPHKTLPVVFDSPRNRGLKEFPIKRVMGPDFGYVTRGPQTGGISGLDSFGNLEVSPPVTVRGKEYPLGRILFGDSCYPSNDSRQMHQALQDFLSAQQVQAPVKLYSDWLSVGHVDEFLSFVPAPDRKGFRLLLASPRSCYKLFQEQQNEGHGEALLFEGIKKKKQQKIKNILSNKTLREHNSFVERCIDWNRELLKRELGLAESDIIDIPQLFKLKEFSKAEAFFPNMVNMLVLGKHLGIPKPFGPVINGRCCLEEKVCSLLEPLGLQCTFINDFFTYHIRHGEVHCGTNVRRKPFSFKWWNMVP

IC50 [1]: 0.122 µM and 0.123 µM | inhibition at 10 min, 10 µM ([2]; human liver microsomes, 10 µM, human liver microsome, read-out: CYP1A2 inhibition (% inh @10 µM)): < 50% | IC50 ([2]; predicted from % inhibition, text says major CYPs tested): > 10000 nM
Structure (SMILES): Cc1c(-c2cc3ccccc3n2Cc2ccc(F)cc2)nc2cc(C(=O)N3CCC[C@@H](N)C3)ccn12 [JBI-589, (R)-(3-aminopiperidin-1-yl)(2-(1-(4-fluorobenzyl)-1H-indol-2-yl)-3-methylimidazo[1,2-a]pyridin-7-yl)methanone]
H4Cit positivity [3]: the same effect was confirmed | NET formation [3]: the same effect was confirmed
